In paper PMC5537068, “Endoglucanase activity at a second site in Pyrococcus furiosus triosephosphate isomerase—Promiscuity or compensation for a metabolic handicap?” (FEBS Open Bio, 2017):
pKd: −log10 of the molar value.

Legend:
[1] = target: T1, PfuTIM (Pyrococcus furiosus, UniProt P62002); test: intrinsic tryptophan fluorescence quenching, hyperbolic fit; type: binding
T1 construct: gene tpiA; full-length, 6xHis tag from pQE30 (BamHI/HindIII), tag kept; E. coli M15[pREP4]; IMAC and gel filtration; monomer ~25 kDa; octamer in Tris, hexamer in phosphate
T1 sequence (P62002 whole entry): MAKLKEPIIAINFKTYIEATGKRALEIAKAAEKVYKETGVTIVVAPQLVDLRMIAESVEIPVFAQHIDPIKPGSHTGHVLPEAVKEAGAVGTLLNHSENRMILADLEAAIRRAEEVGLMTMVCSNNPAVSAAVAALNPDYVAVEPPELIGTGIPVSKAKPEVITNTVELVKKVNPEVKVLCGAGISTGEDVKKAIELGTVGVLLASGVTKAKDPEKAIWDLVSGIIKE

[2] = target: T1, PfuTIM; test: inhibition of cellobioside-resorufin hydrolysis, absorbance at […] nm; type: biochemical; conditions: enzyme 2 μM; cellobioside-resorufin 100 μM; norharman 25 μM; endoglucanase activity; headed as competitive
[3] = target: T1, PfuTIM; test: resorufin release, absorbance at […] nm; type: biochemical; conditions: pH 6.0, 35 °C; phosphate-purified enzyme 2 μM; substrate 2.5-250 μM; promiscuous endoglucanase activity, second site
[4] = target: T2, PfuTIM (Pyrococcus furiosus, UniProt P62002, E144G); test: resorufin release, absorbance at […] nm; type: biochemical; conditions: 37 °C, overnight incubation
T2 construct: gene tpiA; full-length, 6xHis tag from pQE30 (BamHI/HindIII), tag kept; E. coli M15[pREP4]; IMAC and gel filtration; monomer ~25 kDa; octamer in Tris, hexamer in phosphate
T2 sequence (P62002 whole entry E144G): as the sequence (P62002 whole entry) above, with E144G counted along it

| Km [3] | Structure (SMILES) | pKd [1] | complete inhibition at 25 μM [2] | % of wild-type activity [4] |
| --- | --- | --- | --- | --- |
| – | c1ccc2c(c1)[nH]c1cnccc12 [norharman] | ~4.08 | With norharman, complete inhibition of endoglucanase/cellulase activity is seen | – |
| ~ 53.62 ± 4.05 μM | O=c1ccc2nc3ccc(O[C@@H]4O[C@H](CO)[C@@H](O[C@@H]5O[C@H](CO)[C@@H](O)[C@H](O)[C@H]5O)[C@H](O)[C@H]4O)cc3oc-2c1 [cellobioside–resorufin] | – | – | percentages of activity with respect to the wild‐type protein are plotted, for assays with cellobioside–resorufin |
